# From patent publication US6376518B1, “Acyl derivatives of 4-demethylpenclomedine, use thereof and preparation thereof” (Southern Research Institute, priority 1999, dated 2002)
# Like-named read-outs stand apart in the source and are kept apart here.
# Legend:
# [1] = system: P388/L-PAM leukemia; details: for 50-DAY SURV/TOTAL / % ILS / APPROX. NET LOG10 CHANGE IN TUMOR BURDEN AT END OF Rx / MEDIAN DAY OF DEATH: P388/L-PAM, Q1D × 5 (1); for MEDIAN DAY OF DEATH: dying mice only
# [2] = system: P388/0 leukemia; details: P388/0, Q1D × 5 (1); for MEDIAN DAY OF DEATH: dying mice only
# [3] = system: P388/CPA leukemia; experiment: Antitumor activity against IP-implanted P388/CPA leukemia in mice; type: in vivo, murine; details: P388/CPA, Q1D × 5 (1)
# [4] = system: P388/BCNU leukemia; experiment: Antitumor activity against IP-implanted P388/BCNU leukemia in mice; details: P388/BCNU, Q1D × 5 (1); for MEDIAN DAY OF DEATH: dying mice only
# [5] = system: patients; details: patients with advanced solid tumors; one hour infusion for 5 consecutive days; cited from earlier work
# [6] = system: human MX-1 mammary tumor; experiment: In vivo antitumor activity vs i.c.-implanted human MX-1 mammary tumor xenograft in athymic mice; details: ic MX-1; optimal doses (LD10 or less), schedule QD1-5, administered LP.
# [7] = tumor-bearing rats, 14C-penclomedine; cited from earlier work
smiles,measurement,setting,value
"COc1nc(C(Cl)(Cl)Cl)c(Cl)c(OC)c1Cl [PEN, 3,5-dichloro-2,4-dimethoxy-6-(trichloromethyl)pyridine]",50-DAY SURV/TOTAL,[1]; IP 60.0 mg/kg/dose,0/6
same,% ILS,[1]; IP 60.0 mg/kg/dose,0%
same,APPROX. NET LOG10 CHANGE IN TUMOR BURDEN AT END OF Rx,[1]; IP 60.0 mg/kg/dose,+1.4
same,MEDIAN DAY OF DEATH,[1]; IP 60.0 mg/kg/dose,14.0
same,50-DAY SURV/TOTAL,[1]; IP 90.0 mg/kg/dose,0/6
same,% ILS,[1]; IP 90.0 mg/kg/dose,−8%
same,APPROX. NET LOG10 CHANGE IN TUMOR BURDEN AT END OF Rx,[1]; IP 90.0 mg/kg/dose,+1.6
same,MEDIAN DAY OF DEATH,[1]; IP 90.0 mg/kg/dose,13.0
same,50-DAY SURV/TOTAL,[1]; IP 135.0 mg/kg/dose,0/6
same,% ILS,[1]; IP 135.0 mg/kg/dose,−8%
same,APPROX. NET LOG10 CHANGE IN TUMOR BURDEN AT END OF Rx,[1]; IP 135.0 mg/kg/dose,+1.6
same,MEDIAN DAY OF DEATH,[1]; IP 135.0 mg/kg/dose,13.0
same,activity in the P388/L-PAM tumor model (in words),"[1]; mouse, in vivo",none of the three showed significant activity
same,50-DAY SURV/TOTAL,[2]; IP 60.0 mg/kg/dose,0/6
same,% ILS,[2]; IP 60.0 mg/kg/dose,+31%
same,APPROX. NET LOG10 CHANGE IN TUMOR BURDEN AT END OF Rx,[2]; IP 60.0 mg/kg/dose,+0.4
same,50-DAY SURV/TOTAL,[2]; IP 90.0 mg/kg/dose,0/6
same,% ILS,[2]; IP 90.0 mg/kg/dose,+45%
same,APPROX. NET LOG10 CHANGE IN TUMOR BURDEN AT END OF Rx,[2]; IP 90.0 mg/kg/dose,−0.8
same,MEDIAN DAY OF DEATH,[2]; IP 90.0 mg/kg/dose,18.0
same,50-DAY SURV/TOTAL,[2]; IP 135.0 mg/kg/dose,0/6
same,% ILS,[2]; IP 135.0 mg/kg/dose,+90%
same,APPROX. NET LOG10 CHANGE IN TUMOR BURDEN AT END OF Rx,[2]; IP 135.0 mg/kg/dose,−4.8
same,MEDIAN DAY OF DEATH,[2]; IP 135.0 mg/kg/dose,21.0
same,50-DAY SURV/TOTAL,[3]; IP 60.0 mg/kg/dose,0/6
same,% ILS,[3]; IP 60.0 mg/kg/dose,−5%
same,APPROX. NET LOG10 CHANGE IN TUMOR BURDEN AT END OF Rx,[3]; IP 60.0 mg/kg/dose,+1.7
same,50-DAY SURV/TOTAL,[3]; IP 90.0 mg/kg/dose,0/6
same,% ILS,[3]; IP 90.0 mg/kg/dose,−5%
same,APPROX. NET LOG10 CHANGE IN TUMOR BURDEN AT END OF Rx,[3]; IP 90.0 mg/kg/dose,+1.7
same,50-DAY SURV/TOTAL,[3]; IP 135.0 mg/kg/dose,0/6
same,% ILS,[3]; IP 135.0 mg/kg/dose,−5%
same,APPROX. NET LOG10 CHANGE IN TUMOR BURDEN AT END OF Rx,[3]; IP 135.0 mg/kg/dose,+1.7
same,50-DAY SURV/TOTAL,[4]; IP 60.0 mg/kg/dose,0/6
same,% ILS,[4]; IP 60.0 mg/kg/dose,−6%
same,APPROX. NET LOG10 CHANGE IN TUMOR BURDEN AT END OF Rx,[4]; IP 60.0 mg/kg/dose,+1.8
same,MEDIAN DAY OF DEATH,[4]; IP 60.0 mg/kg/dose,8.5
same,50-DAY SURV/TOTAL,[4]; IP 90.0 mg/kg/dose,0/6
same,% ILS,[4]; IP 90.0 mg/kg/dose,0%
same,APPROX. NET LOG10 CHANGE IN TUMOR BURDEN AT END OF Rx,[4]; IP 90.0 mg/kg/dose,+1.7
same,MEDIAN DAY OF DEATH,[4]; IP 90.0 mg/kg/dose,9.0
same,50-DAY SURV/TOTAL,[4]; IP 135.0 mg/kg/dose,0/6
same,% ILS,[4]; IP 135.0 mg/kg/dose,+27%
same,APPROX. NET LOG10 CHANGE IN TUMOR BURDEN AT END OF Rx,[4]; IP 135.0 mg/kg/dose,+1.2
same,"neurotoxicity (dysmetria, ataxia, vertigo)",[5],principal dose limiting toxicity
same,Median % ILS (based on dying mice only),[6],88%
same,Survivors,[6],0/5
same,predominant radioactive species in the brain,[7],predominant radioactive species in the brain was penclomedine
